From patent US20250066363A1, “Bicyclic DGK Inhibitors” (Incyte Corporation, priority 2023, published 2025)

Key:
DGKζ = DGKζ (Homo sapiens (Human), UniProt Q13574); experiment: In vitro DGKζ inhibition assay (ADP-Glo); assay type: biochemical; details: second column of Table A, head printed DGKα, presumably DGKζ; His-tagged human recombinant DGKζ 0.4 nM, 30 μM ATP, 20 μM DLG
Procedure: (§1) The DGKα and DGKζ biochemical reactions were performed using His-tagged human recombinant enzymes (Signal Chem, DGKα, #D21-10BH; DGKζ, #D30-1OH)) and DLG (Dilauroyl-sn-glycerol) lipid substrate (Signal Chem, #D430-59). ADP-Glo assay was performed using ADP-Glo™ kinase Assay kit (Promega, #V9104). The reactions were carried out in assay buffer containing 40 mM Tris, pH 7.5, 0.1% CHAPS, 0.1% Prionex, 40 mM NaCl, 5 mM MgCl2, 1 mM CaCl2, and 1 mM DTT. DGKα reactions contained 0.1 nM DGKα, 50 μM ATP, and 20 μM DLG. And DGKζ reactions contained 0.4 nM DGKζ, 30 μM ATP, and 20 μM DLG.
(§2) For compound inhibition studies, 40 nL test compound in DMSO was added to wells of white polystyrene plates in 384-well (Greiner, #784075) or 1536-well format (Greiner, #782075). Compounds were added with top concentration of 2 mM with 11 point, 3-fold dilution series. Enzyme solution (contains 2× DGK enzyme concentration in 1× assay buffer) was added to the plate in 2 μL/well volume, followed by 2 μL/well of substrate solution (contains 2× concentration of ATP and DLG substrate in 1× assay buffer). Plates were then centrifuged for 1 min at 1200 RPM and sealed or lidded. For 4 μL reaction volume, test compounds were therefore diluted 100× to final top concentration of 20 μM. After 90 minute incubation, reactions were quenched by addition of 2 μL/well Promega ADP-Glo Reagent, followed by centrifugation and lidding. After 60 min incubation, 2 μL/well Promega Kinase Detection Reagent was added, plates centrifuged, and incubated for 30 min. Plates were then read using Luminescence method on BMG PHERAstar FSX plate reader. Percent inhibition was calculated and IC50s were determined using 4-parameter fit in Genedata Screener. Labcyte Echo acoustic dispenser was used for compound addition, and Formulatrix Tempest liquid handler was used for all reagent dispenses.

DGKα = DGKα (Homo sapiens (Human), UniProt P23743); experiment: In vitro DGKα inhibition assay (ADP-Glo); assay type: biochemical; details: first column of Table A; His-tagged human recombinant DGKα 0.1 nM, 50 μM ATP, 20 μM DLG
Procedure: as §1, §2

DGKα, sequence (P23743 whole entry): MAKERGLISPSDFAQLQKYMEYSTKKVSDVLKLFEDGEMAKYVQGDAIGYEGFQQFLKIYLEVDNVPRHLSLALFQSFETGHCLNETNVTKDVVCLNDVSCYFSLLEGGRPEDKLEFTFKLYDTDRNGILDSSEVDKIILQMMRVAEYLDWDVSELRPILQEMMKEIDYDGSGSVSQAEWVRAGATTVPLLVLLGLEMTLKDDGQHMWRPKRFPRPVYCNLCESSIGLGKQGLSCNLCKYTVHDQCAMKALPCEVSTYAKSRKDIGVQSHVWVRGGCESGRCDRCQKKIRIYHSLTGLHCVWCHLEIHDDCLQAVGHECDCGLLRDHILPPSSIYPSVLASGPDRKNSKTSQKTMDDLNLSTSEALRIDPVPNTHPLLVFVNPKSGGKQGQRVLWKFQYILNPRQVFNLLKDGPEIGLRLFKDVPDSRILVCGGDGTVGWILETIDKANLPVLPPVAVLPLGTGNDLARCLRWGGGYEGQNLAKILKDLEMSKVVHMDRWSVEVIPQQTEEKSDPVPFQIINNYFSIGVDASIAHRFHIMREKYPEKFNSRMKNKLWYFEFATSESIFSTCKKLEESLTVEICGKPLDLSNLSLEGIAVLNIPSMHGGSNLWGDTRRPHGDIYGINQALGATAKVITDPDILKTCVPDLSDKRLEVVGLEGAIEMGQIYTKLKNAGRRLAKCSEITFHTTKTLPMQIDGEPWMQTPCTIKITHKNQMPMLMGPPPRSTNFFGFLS
DGKζ, sequence (Q13574 whole entry): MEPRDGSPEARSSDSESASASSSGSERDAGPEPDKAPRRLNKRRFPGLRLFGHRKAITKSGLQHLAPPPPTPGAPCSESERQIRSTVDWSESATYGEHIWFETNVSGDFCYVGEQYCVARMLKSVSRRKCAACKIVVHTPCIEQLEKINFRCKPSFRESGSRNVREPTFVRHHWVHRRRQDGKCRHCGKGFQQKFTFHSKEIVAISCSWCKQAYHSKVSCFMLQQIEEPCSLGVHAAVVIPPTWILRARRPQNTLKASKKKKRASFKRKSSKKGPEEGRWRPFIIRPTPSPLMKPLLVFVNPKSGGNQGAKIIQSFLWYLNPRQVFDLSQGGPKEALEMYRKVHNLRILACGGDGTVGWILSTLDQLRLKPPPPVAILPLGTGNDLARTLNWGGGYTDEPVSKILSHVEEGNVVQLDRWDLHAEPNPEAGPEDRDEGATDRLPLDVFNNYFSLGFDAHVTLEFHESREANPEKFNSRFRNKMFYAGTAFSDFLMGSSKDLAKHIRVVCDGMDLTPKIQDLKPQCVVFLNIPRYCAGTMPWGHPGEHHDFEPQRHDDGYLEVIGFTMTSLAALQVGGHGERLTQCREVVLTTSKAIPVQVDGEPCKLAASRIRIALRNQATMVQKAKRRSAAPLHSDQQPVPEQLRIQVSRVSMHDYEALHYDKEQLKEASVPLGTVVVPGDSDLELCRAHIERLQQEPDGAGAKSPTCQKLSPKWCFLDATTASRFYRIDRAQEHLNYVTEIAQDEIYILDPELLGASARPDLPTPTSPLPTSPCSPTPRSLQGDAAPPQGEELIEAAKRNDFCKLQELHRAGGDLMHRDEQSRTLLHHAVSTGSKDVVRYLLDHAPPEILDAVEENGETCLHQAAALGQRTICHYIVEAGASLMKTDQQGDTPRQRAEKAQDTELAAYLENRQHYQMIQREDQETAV

Row | IC50 (DGKζ) [nM] | IC50 (DGKα) [nM] | Structure (SMILES)
1 | ≤ 10 | ≤ 10 | Cc1nc2c(N3C[C@@H](C)N(C(c4ccc(F)cc4)c4ccc(F)cc4)C[C@@H]3C)nc(=O)n(C)c2n1C[C@@H]1CCCO1 [Example 2, 6-((2S,5R)-4-(Bis(4-fluorophenyl)methyl)-2,5-dimethylpiperazin-1-yl)-3,8-dimethyl-9-(((S)-tetrahydrofuran-2-yl)methyl)-3,9-dihydro-2H-purin-2-one]
2 | ≤ 10 | ≤ 10 | CC[C@@H]1CN(c2nc(=O)n(C)c3c2nc(C)n3C[C@H]2OCC[C@@H]2O)[C@@H](C)CN1C(c1ccc(Cl)cc1)C1CC(F)(F)C1 (stereo partly drawn) [Example 65, 6-((2S,5R)-4-((4-Chlorophenyl)(3,3-difluorocyclobutyl)methyl)-5-ethyl-2-methylpiperazin-1-yl)-9-(((2R,3S)-3-hydroxytetrahydrofuran-2-yl)methyl)-3,8-dimethyl-3,9-dihydro-2H-purin-2-one]
3 | ≤ 10 | ≤ 10 | Cc1nc2c(N3C[C@@H](C)N([C@@H](c4ccc5cc(F)ccc5n4)C(C)C)C[C@@H]3C)nc(=O)n(C)c2n1C[C@@H]1CCCO1 [Example 48, 6-((2S,5R)-4-((R)-1-(6-fluoroquinolin-2-yl)-2-methylpropyl)-2,5-dimethylpiperazin-1-yl)-3,8-dimethyl-9-(((S)-tetrahydrofuran-2-yl)methyl)-3,9-dihydro-2H-purin-2-one]
4 | ≤ 10 | ≤ 10 | CC[C@@H]1CN(c2nc(=O)n(C)c3c2nc(C)n3C[C@@H]2CCCO2)[C@@H](C)CN1[C@@H](C)c1ccc(C(F)(F)F)cc1 [Example 61, 6-((2S,5R)-5-Ethyl-2-methyl-4-((S)-1-(4-(trifluoromethyl)phenyl)ethyl)piperazin-1-yl)-3,8-dimethyl-9-(((S)-tetrahydrofuran-2-yl)methyl)-3,9-dihydro-2H-purin-2-one]
5 | ≤ 10 | ≤ 10 | CC[C@@H]1CN(c2nc(=O)n(C)c3c2nnn3C[C@H]2CCCO2)[C@@H](C)CN1[C@@H](c1ccc(Cl)cc1)[C@@H]1CC1(F)F [Example 23, 7-((2S,5R)-4-((R)-(4-chlorophenyl)((S)-2,2-difluorocyclopropyl)methyl)-5-ethyl-2-methylpiperazin-1-yl)-4-methyl-3-(((R)-tetrahydrofuran-2-yl)methyl)-3,4-dihydro-5H-[1,2,3]triazolo[4,5-d]pyrimidin-5-one]
6 | ≤ 10 | ≤ 10 | CC[C@@H]1CN(c2nc(=O)n(C)c3c2nnn3C[C@H]2CCCO2)[C@@H](C)CN1[C@@H](CC)c1ccc(C(F)(F)F)cc1 [Example 30, 7-((2S,5R)-5-Ethyl-2-methyl-4-((S)-1-(4-(trifluoromethyl)phenyl)propyl)piperazin-1-yl)-4-methyl-3-(((R)-tetrahydrofuran-2-yl)methyl)-3,4-dihydro-5H-[1,2,3]triazolo[4,5-d]pyrimidin-5-one]
7 | ≤ 100 | ≤ 10 | CC[C@@H]1CN(c2nc(=O)n(C)c3c2nnn3C[C@H]2CCCO2)[C@@H](C)CN1[C@H](CC)c1ccc(Cl)cc1 [Example 27, 7-((2S,5R)-4-((R)-1-(4-chlorophenyl)propyl)-5-ethyl-2-methylpiperazin-1-yl)-4-methyl-3-(((R)-tetrahydrofuran-2-yl)methyl)-3,4-dihydro-5H-[1,2,3]triazolo[4,5-d]pyrimidin-5-one]
8 | ≤ 10 | ≤ 10 | Cc1nc2c(N3C[C@@H](C)N(C(c4ccc(C(F)(F)F)cc4)C4CC(F)(F)C4)C[C@@H]3C)nc(=O)n(C)c2n1C[C@H]1OCC[C@@H]1O (single isomer, unassigned) [Example 34]
9 | ≤ 10 | ≤ 10 | CC[C@@H]1CN(c2nc(=O)n(C)c3c2nnn3C[C@H]2CCCO2)[C@@H](C)CN1C(c1ccc(C(F)(F)F)cc1)C1CC(F)(F)C1 (stereo partly drawn) [Example 44, 7-((2S,5R)-4-((3,3-Difluorocyclobutyl)(4-(trifluoromethyl)phenyl)methyl)-5-ethyl-2-methylpiperazin-1-yl)-4-methyl-3-(((R)-tetrahydrofuran-2-yl)methyl)-3,4-dihydro-5H-[1,2,3]triazolo[4,5-d]pyrimidin-5-one]
10 | ≤ 10 | ≤ 10 | Cc1nc2c(N3C[C@@H](C(F)F)N(C(c4ccc(C(F)(F)F)cc4)C4CC(F)(F)C4)C[C@@H]3C)nc(=O)n(C)c2n1C[C@@H]1CCCO1 (single isomer, unassigned) [Example 42]
11 | ≤ 10 | ≤ 10 | CC[C@@H]1CN(c2nc(=O)n(C)c3c2nnn3C[C@H]2CCCO2)[C@@H](C)CN1C(c1ccc(Cl)cc1)C1CC(F)(F)C1 (stereo partly drawn) [Example 45, 7-((2S,5R)-4-((4-Chlorophenyl)(3,3-difluorocyclobutyl)methyl)-5-ethyl-2-methylpiperazin-1-yl)-4-methyl-3-(((R)-tetrahydrofuran-2-yl)methyl)-3,4-dihydro-5H-[1,2,3]triazolo[4,5-d]pyrimidin-5-one]
12 | ≤ 10 | ≤ 10 | Cc1nc2c(N3C[C@@H](C)N(C(CC(C)C)c4ccc(Cl)cc4)C[C@@H]3C)nc(=O)n(C)c2n1C[C@@H]1CCCO1 (stereo partly drawn) [Example 16, 6-((2S,5R)-4-(1-(4-Chlorophenyl)-3-methylbutyl)-2,5-dimethylpiperazin-1-yl)-3,8-dimethyl-9-(((S)-tetrahydrofuran-2-yl)methyl)-3,9-dihydro-2H-purin-2-one]
13 | ≤ 10 | ≤ 10 | CC[C@@H]1CN(c2nc(=O)n(C)c3c2nc(C)n3C[C@H]2OCC[C@@H]2O)[C@@H](C)CN1C(c1ccc(C(F)(F)F)cc1)C1CC(F)(F)C1 (single isomer, unassigned) [Example 68]
14 | ≤ 10 | ≤ 10 | CC[C@@H]1CN(c2nc(=O)n(C)c3c2nc(C)n3C[C@@H]2CCCO2)[C@@H](C)CN1[C@@H](c1ccc(C(F)(F)F)cc1)C(C)C [Example 60, 6-((2S,5R)-5-ethyl-2-methyl-4-((R)-2-methyl-1-(4-(trifluoromethyl)phenyl)propyl)piperazin-1-yl)-3,8-dimethyl-9-(((S)-tetrahydrofuran-2-yl)methyl)-3,9-dihydro-2H-purin-2-one]
15 | ≤ 10 | ≤ 10 | CC[C@@H]1CN(c2nc(=O)n(C)c3c2nnn3CC2(O)CCC2)[C@@H](C)CN1C(C)c1ccc(C(F)(F)F)cc1 (single isomer, unassigned) [Example 64]
16 | ≤ 10 | ≤ 10 | CC[C@@H]1CN(c2nc(=O)n(C)c3c2nc(C)n3C[C@@H]2CCCO2)[C@@H](C)CN1[C@H](CC)c1ccc(Cl)cc1 [Example 25, 6-((2S,5R)-4-((R)-1-(4-chlorophenyl)propyl)-5-ethyl-2-methylpiperazin-1-yl)-3,8-dimethyl-9-(((S)-tetrahydrofuran-2-yl)methyl)-3,9-dihydro-2H-purin-2-one]
17 | ≤ 10 | ≤ 10 | CC(C)CC(c1ccc(Cl)cc1)N1C[C@H](C)N(c2nc(=O)n(C)c3c2nnn3C[C@H]2CCCO2)C[C@H]1C (single isomer, unassigned) [Example 18]
18 | ≤ 100 | ≤ 10 | C[C@@H]1CN(c2nc(=O)n(C)c3c2ccn3C[C@@H]2CCCO2)[C@@H](C)CN1C(c1ccc(F)cc1)c1ccc(F)cc1 [Example 6, 4-((2S,5R)-4-(Bis(4-fluorophenyl)methyl)-2,5-dimethylpiperazin-1-yl)-1-methyl-7-(((S)-tetrahydrofuran-2-yl)methyl)-1,7-dihydro-2H-pyrrolo[2,3-d]pyrimidin-2-one]
19 | ≤ 10 | ≤ 10 | CC[C@@H]1CN(c2nc(=O)n(C)c3c2nc(C)n3C[C@@H]2CCCO2)[C@@H](C)CN1[C@H](CC)c1ccc(C(F)(F)F)cc1 [Example 29, 6-((2S,5R)-5-ethyl-2-methyl-4-((R)-1-(4-(trifluoromethyl)phenyl)propyl)piperazin-1-yl)-3,8-dimethyl-9-(((S)-tetrahydrofuran-2-yl)methyl)-3,9-dihydro-2H-purin-2-one]
20 | ≤ 10 | ≤ 10 | Cc1nc2c(N3C[C@@H](C)N(C(c4ccc(C(F)(F)F)cc4)C4CC(F)(F)C4)C[C@@H]3C)nc(=O)n(C)c2n1C[C@H]1OCC[C@H]1O (single isomer, unassigned) [Example 35]
21 | ≤ 10 | ≤ 10 | Cc1nc2c(N3C[C@@H](C)N(C(c4ccc(Cl)c(F)c4)C4CC(F)(F)C4)C[C@@H]3C)nc(=O)n(C)c2n1C[C@@H]1CCCO1 (stereo partly drawn) [Example 39, 6-((2S,5R)-4-((4-Chloro-3-fluorophenyl)(3,3-difluorocyclobutyl)methyl)-2,5-dimethylpiperazin-1-yl)-3,8-dimethyl-9-(((S)-tetrahydrofuran-2-yl)methyl)-3,9-dihydro-2H-purin-2-one]
22 | ≤ 10 |  | Cc1nc2c(N3C[C@@H](C)N(C(c4ccc(C(F)(F)F)cc4)[C@H]4CC4(F)F)C[C@@H]3C)nc(=O)n(C)c2n1C[C@@H]1CCCO1 (single isomer, unassigned) [Example 21]
